Patent US20230405078A1, “DETECTION AND TREATMENT OF INTESTINAL FIBROSIS” (THE REGENTS OF THE UNIVERSITY OF CALIFORNIA, priority 2020, published 2023)
Entries after “also recorded” stand apart in the source; their conditions may differ. Where no end group is shown, it is not given here.

What was measured:
TNBS-treated mice = assay: TNBS-associated colonic fibrosis in mice; assay type: in vivo
Method: Eight-week-old male and female CD-1 mice (#022, Charles River Laboratories) were injected with 50pL TNBS solution (to induce colonic fibrosis) or 30% ethanol (vehicle) via enema weekly for five weeks. After the last TNBS injection, the mice were held for two additional weeks to develop colonic fibrosis. Some of the mice were injected with 5 μg/mouse of either control (PS100001) or elafin-expressing construct (RC203136) from
Origene via InvivoJetPEI transfection reagent (201-10G, Polyplus) intracolonically on the 9th day after the last TNBS injection or five days before the end of experiment.
Some of the mice received either a single intraperitoneal injection of 10 mg/kg anti-tumor necrosis factor-alpha (anti-TNFα) neutralizing antibody (6E0058, BioXCell) or oral antibiotic mixture in drinking water ad libitum from the 9th day after the last TNBS injection to the endpoint of the experiment. The antibiotics mixture contains kanamycin (0.4 mg/mL), gentamicin (0.035 mg/mL), colistin (850 U/mL), metronidazole (0.215 mg/mL), and vancomycin (0.045 mg/mL), which was routinely used by our laboratory for suppressing intestinal microbiota.
For PAR1/2 activation, some of the mice were injected with DMSO (50pL/mouse), 5 mg/kg PAR1 agonist TRAP-6, or 5 mg/kg PAR2 agonist SLIGKV-NH2 via enema on the 9th, 11th, and 13th days after the last TNBS injection.
For miRNA inhibition, some of the mice were injected with 5 mg/kg either control inhibitor or miR205-5p power inhibitor (Qiagen) […] via enema on the 9th, 11th, and 13th days after the last TNBS injection.
For Zeb1 manipulation, some mice received a single intraperitoneal injection (10^7 infectious units/mouse) of control lentivirus (PS100064V), Zeb1-overexpressing lentivirus (MR223095L2V), or Zeb1-shRNA lentivirus (TL513177V) from Origene, Inc. nine days after the last TNBS injection.
Dr. Xingguo Cheng produced the oral elafin-Eudragit-FS3OD formulation via a material transfer agreement (UCLA MTA2019-00000337) with the Southwest Research Institute (SWRI) in Texas. […] The mice were fed with either control-Eudragit or elafin-Eudragit in mildly acidified (pH 5) water containing 0.5% hydroxypropyl methylcellulose (HPMC) daily via oral gavage during the last five days of the experiment.
H&E and Masson Trichrome (MT) staining were performed as described previously. Microphotographs were recorded at multiple locations and scored by two investigators blindly. Intestinal injuries were scored (0-12). The severity of intestinal fibrosis was assessed by MT staining and scored (0-3). ZEB1 immunohistochemistry was performed using an anti-ZEB1 antibody (HPA027524, Sigma).
Total RNA was isolated by an RNeasy kit (#74104, Qiagen) and reverse transcribed into cDNA by a high-capacity cDNA reverse transcription kit (#4368813, ThermoFisher). PCR reactions were run with Taq Universal SYBR Green Supermix (1725120, Bio-Rad) and TaqMan real-time PCR assays (ThermoFisher) in a Bio-Rad CFX384 system. For the determination of miRNA expression, RNA was converted to cDNA using miRCURY LNA RT kit. PCR reactions were run with miRCURY LNA SYBR Green PCR kit and miRCURY LNA PCR assays (Qiagen). Relative mRNA/miRNA quantification was performed by comparing test groups and control groups after normalization with endogenous control genes. The fold changes are expressed as […]. […]
Overall disease activity (ODA) was calculated by % change of histology and fibrosis scores and colonic mRNA expression of fibrosis- and inflammation-related genes. […]

[1] = system: Human colonic CCD-18Co fibroblasts; assay: TGF-β1-induced fibrogenesis in CCD-18Co fibroblasts; assay type: cell-based
Method: Cleveland Clinic IRB directives (IRB #17-1167). Primary non-IBD patient-derived colonic fibroblasts (H6231) were purchased from Cell Biologics. All primary colonic fibroblasts were cultured in fibroblast medium (M2267, Cell Biologics). Human colonic CCD-18Co fibroblasts (ATCC) were cultured in minimal essential medium Eagle's medium (MEM) containing 10% fetal bovine serum and 1% penicillin-streptomycin 6, 20. All fibroblasts were grown to 80% confluence and then switched to serum-free media overnight for experiments.
For activation of protease-activated receptors (PARs), fibroblasts were pretreated with 0.8% DMSO, 10 μM PAR1 agonist TRAP-6 (HY-P0078, MCE), 10 μM PAR2 agonist SLIGKV-NH2 (Protease-Activated Receptor-2, amide, HY-P0283, MCE), or 0.4 μg/ml PAR2-activating protease recombinant cathepsin S (1183-CY-010, R&D Systems) for 30 minutes. For miR205-5p activation, fibroblasts were transfected with (30 picomoles/well) either control (YM00479902) or miR205-5p miRCURY LNA mimic (YM00472340) from Qiagen via Lipofectamine 3000 transfection reagent (L3000001, ThermoFisher) in Opti-MEM (#31985062, ThermoFisher) overnight. For miR205-5p inhibition, fibroblasts were pretreated with 50nM either control (Y100199006) or miR205-5p power inhibitors (Y104101508-DDA) from Qiagen overnight. For overexpression of zinc finger E-box homeobox 1 (ZEB1), fibroblasts were infected with […] infectious units/plate either control (PS100064V) or human ZEB1-overexpressing lentivirus (RC217704L1V) from Origene, Inc. overnight.
The fibroblasts were pretreated with either 0.1% TFA (vehicle), 10 ng/ml transforming growth factor-beta 1 (TGF-p1), or 100 μg/ml serum exosomes from stricturing CD (CDSE) patients for two hours to induce fibrogenesis, followed by incubation with elafin (AS-61641, Anaspec) for 2-24 hours. Serum exosomes from CD patients were used to mimic the chemical environment of CD [12]. At the end of the experiments, the cells were lysed with either RLT buffer for RNA experiments or radioimmunoprecipitation assay (RIPA) buffer for ProCOL1A1 (DY6220-05, R&D Systems), COL1A2 (MBS2701496, MyBioSource), ZEB1 (MBS774017, MyBioSource), or phosphorylated ERK1/2 (DYC1018B, R&D Systems) ELISAs.

Row | Substance | overall disease activity (TNBS-treated mice; TNBS models) | TGF-β1 induced COL1A2 and ProCOL1A1 protein expression ([1]; CCD-18Co, ELISA of cell lysates) | TGF-β1-induced COL1A2 (collagen) mRNA expression ([1]; TGF-β1 10 ng/ml, elafin (0.1-10 micrograms/ml) added two hours later, 24 hours) | ZEB1 mRNA and protein expression ([1]; TGF-β1-/CD serum-exosome-treated human colonic fibroblasts) | miR205-5p expression ([1]; TGF-β1-treated CCD-18Co fibroblasts) | miR205-5p expression ([1]; TGF-β1-treated CCD-18Co fibroblasts, listed as elafin) | colonic injury and fibrosis (TNBS-treated mice; TNBS-treated mice) | colonic miR205-5p expression (TNBS-treated mice; TNBS-treated mice) | effect on elafin-mediated inhibition of colonic injury, fibrosis and fibrogenic gene expression (TNBS-treated mice; TNBS-treated mice with intracolonic elafin overexpression) | effect on elafin-mediated miR205-5p induction and ZEB1 inhibition ([1]; TGF-β1-treated CCD-18Co fibroblasts, agonist 10 μM) | effect on elafin-mediated inhibition of collagen expression ([1]; TGF-β1-treated CCD-18Co fibroblasts, elafin 1 μg/ml)
1 | Elafin: small (6 kDa) human elastase-specific protease inhibitor and antimicrobial peptide; active form SEQ ID NO: 2 (AQEPVKGPVSTKPGSCPIILIRCAMLNPPNRCLKDTDCPGIKKCCEGSCGMACFVPQ; listed as Homo sapiens) | 7-11% | reversed | significantly reduced; also recorded: reversed | decreased; also recorded: diminished | increased | significantly increased |  |  |  |  | 
2 | SLIGKV-NH2 [PAR2 agonist, reference compound] |  |  |  |  |  |  | did not affect | diminished | reversed | reversed | reversed
